Assay results as given in US10065965B2, “Imidazo[1,2-B][1,2,4]triazine derivatives as antiparasitic agents” (GlaxoSmithKline Intellectual Property Development Limited, priority 2015, dated 2018).

Key:
Type in all cases: cell-based
Leishmania donovani = test: Assay 1 intramacrophage Leishmania donovani assay (potency readout); details: amastigotes in PMA-treated THP-1 macrophages, 96 h, average number of amastigotes per cell, minimum threshold 4.3, read-out: pEC50 value against Leishmania donovani (converted)
Method in brief: (§1)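 THP-1 cells were differentiated with 20 nM PMA for 75 h, infected with amastigotes at MOI 5 for 16 h, then exposed to compound for 96 h in a ten-point 1:3 series from a 50 μM top concentration. Cells were fixed, DAPI/CellMask-stained and imaged by high-content microscopy. pEC50 was derived from amastigotes per cell and from THP-1 count.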

[1] = Assay 1 intramacrophage Leishmania donovani assay, THP-1 cell count (cytotoxicity readout); details: human, minimum threshold 4.3, read-out: cytotoxicity against THP-1 cells, pEC50 value (converted)
Method in brief: as §1

[2] = Assay 2 Trypanosoma cruzi intracellular assay, cytotoxicity against VERO cells; details: African green monkey, Vero cells infected with T. cruzi trypomastigotes, total number of Vero cells, minimum threshold 4.3, read-out: cytotoxicity against VERO cells, pEC50 (converted)
Description: Compounds were dispensed into black 384-well assay plates (Corning) by acoustic dispensing (LabCyte ECHO). For potency determinations, ten-point one in three dilution curves were generated, with a top concentration of 50 μM. Vero cells were infected overnight with T. cruzi trypomastigotes in T225 tissue culture flasks at a multiplicity of infection of 5. Next, any remaining free trypomastigotes were washed away with serum free MEM media and the infected Vero cells were harvested by trypsinisation. The infected Vero cells were then plated into 384-well plates containing the compounds to be tested, at 4000 cells per well in MEM media with 1% FCS. After 72 h incubation at 37° C. in presence of 5% CO2, the plates were fixed with 4% formaldehyde for 20 minutes at room temperature and stained with 5 μg/ml Hoechst 33342. The plates were imaged on a Perkin Elmer Operetta high-content imaging system using a 20× objective. Images were analysed using the Columbus system (Perkin Elmer). The image analysis algorithm first identified the Vero nuclei followed by demarcation of the cytoplasm and identification of intracellular amastigotes. This algorithm reported mean number of parasites per Vero cell and total number of Vero cells.

O=C(Nc1ccc(F)c(-c2cn3nc(N4CCOCC4)cnc3n2)c1)N1CCCC1 [Example 1, N-(4-fluoro-3-(2-morpholinoimidazo[1,2-b][1,2,4]triazin-6-yl)phenyl)pyrrolidine-1-carboxamide]
EC50 (Leishmania donovani): 0.631 µM
EC50 at 96 h [1]: > 50.1 µM
EC50 at 72 h [2]: > 50.1 µM
